Test results: ChEMBL document CHEMBL5291721, “A preclinical secondary pharmacology resource illuminates target-adverse drug reaction associations of marketed drugs” (Nat Commun, 2023)

Columns and labels:
Mu-type opioid receptor = Mu-type opioid receptor (Homo sapiens, UniProt P35372)
[1] = target: Sodium-dependent dopamine transporter (Homo sapiens, UniProt Q01959)
[2] = target: 5-hydroxytryptamine receptor 2B (Homo sapiens, UniProt P41595); type: functional, cell-based
D(1A) dopamine receptor = D(1A) dopamine receptor (Homo sapiens, UniProt P21728)
[3] = target: Sodium-dependent noradrenaline transporter (Homo sapiens, UniProt P23975)
[4] = target: T1, Amine oxidase [flavin-containing] A (Homo sapiens, UniProt P21397); type: functional
T1 sequence (P21397 whole entry): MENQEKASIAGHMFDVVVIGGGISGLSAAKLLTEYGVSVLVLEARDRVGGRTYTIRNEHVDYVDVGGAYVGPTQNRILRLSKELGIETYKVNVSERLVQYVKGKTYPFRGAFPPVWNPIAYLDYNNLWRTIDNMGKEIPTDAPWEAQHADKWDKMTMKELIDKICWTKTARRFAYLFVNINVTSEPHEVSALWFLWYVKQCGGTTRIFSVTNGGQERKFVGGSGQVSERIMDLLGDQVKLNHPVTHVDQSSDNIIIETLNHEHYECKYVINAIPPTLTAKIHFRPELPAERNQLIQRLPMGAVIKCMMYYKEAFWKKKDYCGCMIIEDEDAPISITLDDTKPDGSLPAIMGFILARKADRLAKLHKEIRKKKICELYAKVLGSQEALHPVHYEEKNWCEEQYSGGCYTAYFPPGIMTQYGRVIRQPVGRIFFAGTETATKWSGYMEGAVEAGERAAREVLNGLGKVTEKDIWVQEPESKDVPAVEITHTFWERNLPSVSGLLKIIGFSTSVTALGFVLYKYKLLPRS

[5] = target: T2, Alpha-2A adrenergic receptor (Homo sapiens, UniProt P08913)
T2 sequence (P08913 whole entry): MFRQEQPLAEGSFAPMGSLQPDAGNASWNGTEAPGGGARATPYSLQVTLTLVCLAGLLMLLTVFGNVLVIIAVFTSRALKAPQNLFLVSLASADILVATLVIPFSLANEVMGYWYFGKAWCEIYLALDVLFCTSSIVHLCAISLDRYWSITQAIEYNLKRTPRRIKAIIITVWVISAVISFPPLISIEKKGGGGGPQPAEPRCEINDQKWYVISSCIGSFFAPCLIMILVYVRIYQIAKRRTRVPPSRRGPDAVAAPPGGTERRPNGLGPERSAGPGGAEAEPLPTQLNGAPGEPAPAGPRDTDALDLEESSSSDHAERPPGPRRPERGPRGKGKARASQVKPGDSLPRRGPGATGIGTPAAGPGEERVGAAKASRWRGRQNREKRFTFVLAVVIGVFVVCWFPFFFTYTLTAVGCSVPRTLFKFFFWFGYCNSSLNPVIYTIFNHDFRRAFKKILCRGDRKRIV

Thromboxane A2 receptor = target: T3, Thromboxane A2 receptor (Homo sapiens, UniProt P21731); type: functional, cell-based
T3 sequence (P21731 whole entry): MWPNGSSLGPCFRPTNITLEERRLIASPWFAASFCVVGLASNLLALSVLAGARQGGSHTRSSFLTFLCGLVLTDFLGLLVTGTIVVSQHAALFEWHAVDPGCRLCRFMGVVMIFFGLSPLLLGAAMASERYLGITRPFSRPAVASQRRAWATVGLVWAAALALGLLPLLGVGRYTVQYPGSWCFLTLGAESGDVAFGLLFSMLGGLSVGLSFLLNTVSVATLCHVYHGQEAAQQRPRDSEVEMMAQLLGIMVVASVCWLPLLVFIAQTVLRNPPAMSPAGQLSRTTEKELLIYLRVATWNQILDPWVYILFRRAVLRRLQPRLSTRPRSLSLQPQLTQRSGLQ

Estrogen receptor = target: T4, Estrogen receptor (Homo sapiens, UniProt P03372)
T4 sequence (P03372 whole entry): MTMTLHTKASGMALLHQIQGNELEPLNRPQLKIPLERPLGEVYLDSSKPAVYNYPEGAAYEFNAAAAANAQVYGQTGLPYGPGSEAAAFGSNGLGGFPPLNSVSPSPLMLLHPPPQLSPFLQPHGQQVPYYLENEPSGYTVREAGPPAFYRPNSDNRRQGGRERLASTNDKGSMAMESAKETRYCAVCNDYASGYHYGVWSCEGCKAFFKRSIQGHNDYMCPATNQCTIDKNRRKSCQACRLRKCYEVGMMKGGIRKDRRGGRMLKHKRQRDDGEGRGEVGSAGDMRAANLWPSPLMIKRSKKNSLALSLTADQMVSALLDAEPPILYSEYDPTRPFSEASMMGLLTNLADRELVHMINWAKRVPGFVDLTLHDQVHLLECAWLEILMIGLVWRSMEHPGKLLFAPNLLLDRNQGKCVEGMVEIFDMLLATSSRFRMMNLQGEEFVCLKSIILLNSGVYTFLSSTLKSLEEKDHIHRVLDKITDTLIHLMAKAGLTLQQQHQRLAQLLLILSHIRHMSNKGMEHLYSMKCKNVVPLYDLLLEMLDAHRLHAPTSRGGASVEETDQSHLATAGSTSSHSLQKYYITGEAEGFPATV

Prothrombin = Prothrombin (Homo sapiens, UniProt P00734); type: functional
[6] = target: Voltage-gated inwardly rectifying potassium channel KCNH2 (Homo sapiens, UniProt Q12809); type: functional; conditions: read-out: AC50
Histamine H3 receptor = Histamine H3 receptor (Homo sapiens, UniProt Q9Y5N1)
[7] = target: Prostaglandin G/H synthase 1 (Homo sapiens, UniProt P23219); type: functional
[8] = target: T5, Alpha-1A adrenergic receptor (Homo sapiens, UniProt P35348); type: functional, cell-based
T5 sequence (P35348 whole entry): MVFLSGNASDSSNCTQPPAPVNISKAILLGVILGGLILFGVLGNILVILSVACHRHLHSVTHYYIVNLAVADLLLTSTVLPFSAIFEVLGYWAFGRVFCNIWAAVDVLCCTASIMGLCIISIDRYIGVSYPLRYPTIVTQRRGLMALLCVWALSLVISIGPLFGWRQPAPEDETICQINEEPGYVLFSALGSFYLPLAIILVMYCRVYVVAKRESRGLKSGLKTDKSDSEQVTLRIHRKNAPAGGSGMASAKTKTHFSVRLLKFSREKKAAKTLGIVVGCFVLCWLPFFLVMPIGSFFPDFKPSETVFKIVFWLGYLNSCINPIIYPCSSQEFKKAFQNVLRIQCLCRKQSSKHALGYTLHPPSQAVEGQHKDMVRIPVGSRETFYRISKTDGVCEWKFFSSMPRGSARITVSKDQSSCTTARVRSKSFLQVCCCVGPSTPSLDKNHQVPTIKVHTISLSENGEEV
Note: assay procedure not described here.

Sequence of Voltage-gated inwardly rectifying potassium channel KCNH2 (Q12809 whole entry): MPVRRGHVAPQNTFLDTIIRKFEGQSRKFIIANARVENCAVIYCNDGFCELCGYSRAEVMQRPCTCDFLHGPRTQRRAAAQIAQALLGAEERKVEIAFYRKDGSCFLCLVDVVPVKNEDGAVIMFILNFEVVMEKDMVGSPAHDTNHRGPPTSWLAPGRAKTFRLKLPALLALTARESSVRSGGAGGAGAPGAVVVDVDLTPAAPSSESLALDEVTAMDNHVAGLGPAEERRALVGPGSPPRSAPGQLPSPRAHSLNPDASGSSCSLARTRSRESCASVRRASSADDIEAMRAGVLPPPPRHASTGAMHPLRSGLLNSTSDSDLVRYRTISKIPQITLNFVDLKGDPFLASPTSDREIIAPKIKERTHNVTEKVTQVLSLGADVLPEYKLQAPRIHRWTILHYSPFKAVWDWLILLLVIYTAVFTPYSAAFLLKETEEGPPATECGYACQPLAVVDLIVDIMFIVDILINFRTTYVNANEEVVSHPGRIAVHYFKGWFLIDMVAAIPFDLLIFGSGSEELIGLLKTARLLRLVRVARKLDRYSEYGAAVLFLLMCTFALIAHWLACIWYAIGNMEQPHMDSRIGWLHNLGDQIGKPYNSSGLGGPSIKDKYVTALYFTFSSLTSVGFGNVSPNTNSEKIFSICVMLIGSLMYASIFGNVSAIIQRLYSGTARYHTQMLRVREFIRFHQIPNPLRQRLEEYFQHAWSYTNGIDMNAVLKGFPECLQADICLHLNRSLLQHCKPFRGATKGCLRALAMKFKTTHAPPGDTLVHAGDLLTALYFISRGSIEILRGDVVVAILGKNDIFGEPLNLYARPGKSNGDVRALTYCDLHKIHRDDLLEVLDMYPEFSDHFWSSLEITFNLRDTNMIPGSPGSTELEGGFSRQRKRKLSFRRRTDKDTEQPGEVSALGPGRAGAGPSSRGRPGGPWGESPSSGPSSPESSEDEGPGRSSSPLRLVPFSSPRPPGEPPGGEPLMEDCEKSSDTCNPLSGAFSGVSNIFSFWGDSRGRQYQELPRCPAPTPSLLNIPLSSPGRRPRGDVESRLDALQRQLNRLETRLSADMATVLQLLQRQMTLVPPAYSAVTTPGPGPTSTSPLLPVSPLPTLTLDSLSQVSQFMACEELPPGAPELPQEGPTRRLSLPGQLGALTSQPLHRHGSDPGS
Sequence of Prostaglandin G/H synthase 1 (P23219 whole entry): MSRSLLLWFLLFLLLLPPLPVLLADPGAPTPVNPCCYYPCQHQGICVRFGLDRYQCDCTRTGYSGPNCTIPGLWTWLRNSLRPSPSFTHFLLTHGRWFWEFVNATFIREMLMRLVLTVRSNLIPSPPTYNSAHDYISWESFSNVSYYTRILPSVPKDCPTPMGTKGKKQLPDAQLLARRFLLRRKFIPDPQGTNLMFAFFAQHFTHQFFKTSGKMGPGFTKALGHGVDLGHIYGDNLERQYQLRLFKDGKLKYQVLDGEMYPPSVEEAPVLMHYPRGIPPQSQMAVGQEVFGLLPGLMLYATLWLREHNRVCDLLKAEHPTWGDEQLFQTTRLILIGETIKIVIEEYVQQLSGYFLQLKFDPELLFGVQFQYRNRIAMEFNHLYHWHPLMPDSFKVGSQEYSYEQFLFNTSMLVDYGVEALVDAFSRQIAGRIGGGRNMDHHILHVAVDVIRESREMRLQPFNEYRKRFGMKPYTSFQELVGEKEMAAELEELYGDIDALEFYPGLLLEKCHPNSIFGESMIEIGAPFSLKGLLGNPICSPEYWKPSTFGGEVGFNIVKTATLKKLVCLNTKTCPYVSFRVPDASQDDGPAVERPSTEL
Sequence of Sodium-dependent noradrenaline transporter (P23975 whole entry): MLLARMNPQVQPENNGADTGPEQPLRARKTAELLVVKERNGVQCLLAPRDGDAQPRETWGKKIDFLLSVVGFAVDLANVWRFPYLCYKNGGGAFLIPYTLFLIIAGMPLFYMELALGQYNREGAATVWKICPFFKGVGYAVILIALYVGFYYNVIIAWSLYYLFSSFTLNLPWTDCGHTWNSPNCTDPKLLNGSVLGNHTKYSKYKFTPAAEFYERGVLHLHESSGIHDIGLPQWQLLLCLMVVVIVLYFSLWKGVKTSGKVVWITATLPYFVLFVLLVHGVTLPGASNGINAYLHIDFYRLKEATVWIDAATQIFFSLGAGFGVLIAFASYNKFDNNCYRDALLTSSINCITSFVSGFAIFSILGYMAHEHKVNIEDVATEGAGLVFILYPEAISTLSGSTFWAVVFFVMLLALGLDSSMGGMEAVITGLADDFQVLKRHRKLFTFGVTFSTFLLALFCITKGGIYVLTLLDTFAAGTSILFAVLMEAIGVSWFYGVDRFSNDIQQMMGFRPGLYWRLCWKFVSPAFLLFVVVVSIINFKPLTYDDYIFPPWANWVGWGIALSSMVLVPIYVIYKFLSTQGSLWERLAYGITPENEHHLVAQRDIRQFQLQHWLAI
Sequence of 5-hydroxytryptamine receptor 2B (P41595 whole entry): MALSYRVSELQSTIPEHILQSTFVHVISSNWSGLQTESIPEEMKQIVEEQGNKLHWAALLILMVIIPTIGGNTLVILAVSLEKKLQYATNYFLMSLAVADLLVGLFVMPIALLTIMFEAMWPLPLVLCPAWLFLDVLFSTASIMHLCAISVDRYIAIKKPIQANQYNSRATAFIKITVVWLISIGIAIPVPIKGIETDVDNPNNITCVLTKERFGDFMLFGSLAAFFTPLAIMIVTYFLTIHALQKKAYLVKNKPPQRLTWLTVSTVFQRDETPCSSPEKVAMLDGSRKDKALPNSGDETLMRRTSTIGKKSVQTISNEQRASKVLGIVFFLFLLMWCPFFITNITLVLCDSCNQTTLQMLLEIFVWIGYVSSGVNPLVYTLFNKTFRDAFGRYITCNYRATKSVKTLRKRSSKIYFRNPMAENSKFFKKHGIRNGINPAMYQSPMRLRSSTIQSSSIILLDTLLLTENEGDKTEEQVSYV
Sequence of Histamine H3 receptor (Q9Y5N1 whole entry): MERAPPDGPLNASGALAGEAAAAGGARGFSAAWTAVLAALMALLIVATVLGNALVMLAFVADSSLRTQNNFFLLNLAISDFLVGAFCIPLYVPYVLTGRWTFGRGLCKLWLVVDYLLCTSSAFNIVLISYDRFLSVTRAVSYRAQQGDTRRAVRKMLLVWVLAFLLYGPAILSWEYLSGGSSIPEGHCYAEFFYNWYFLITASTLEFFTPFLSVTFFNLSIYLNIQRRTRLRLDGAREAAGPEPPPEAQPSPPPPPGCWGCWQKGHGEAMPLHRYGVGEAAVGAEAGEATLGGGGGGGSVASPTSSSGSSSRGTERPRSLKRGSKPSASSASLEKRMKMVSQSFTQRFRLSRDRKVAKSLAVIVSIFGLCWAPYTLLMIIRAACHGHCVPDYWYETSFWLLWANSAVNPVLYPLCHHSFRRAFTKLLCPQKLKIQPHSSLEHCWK
Sequence of Sodium-dependent dopamine transporter (Q01959 whole entry): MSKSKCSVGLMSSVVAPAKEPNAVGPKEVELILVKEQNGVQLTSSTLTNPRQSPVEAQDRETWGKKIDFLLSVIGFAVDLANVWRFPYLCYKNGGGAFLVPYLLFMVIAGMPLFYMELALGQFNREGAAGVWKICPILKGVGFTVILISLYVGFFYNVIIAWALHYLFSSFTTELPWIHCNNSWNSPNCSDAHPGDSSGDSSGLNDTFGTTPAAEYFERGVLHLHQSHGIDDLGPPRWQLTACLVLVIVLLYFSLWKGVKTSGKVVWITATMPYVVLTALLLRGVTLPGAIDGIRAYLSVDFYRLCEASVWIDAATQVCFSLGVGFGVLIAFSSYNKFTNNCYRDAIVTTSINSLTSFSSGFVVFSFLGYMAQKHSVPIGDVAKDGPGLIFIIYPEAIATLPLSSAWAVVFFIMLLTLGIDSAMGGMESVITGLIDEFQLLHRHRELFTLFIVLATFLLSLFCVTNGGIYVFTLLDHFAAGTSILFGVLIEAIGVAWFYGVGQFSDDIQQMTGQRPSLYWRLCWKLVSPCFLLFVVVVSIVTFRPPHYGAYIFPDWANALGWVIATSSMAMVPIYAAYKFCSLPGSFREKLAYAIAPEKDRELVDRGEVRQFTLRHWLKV
Sequence of D(1A) dopamine receptor (P21728 whole entry): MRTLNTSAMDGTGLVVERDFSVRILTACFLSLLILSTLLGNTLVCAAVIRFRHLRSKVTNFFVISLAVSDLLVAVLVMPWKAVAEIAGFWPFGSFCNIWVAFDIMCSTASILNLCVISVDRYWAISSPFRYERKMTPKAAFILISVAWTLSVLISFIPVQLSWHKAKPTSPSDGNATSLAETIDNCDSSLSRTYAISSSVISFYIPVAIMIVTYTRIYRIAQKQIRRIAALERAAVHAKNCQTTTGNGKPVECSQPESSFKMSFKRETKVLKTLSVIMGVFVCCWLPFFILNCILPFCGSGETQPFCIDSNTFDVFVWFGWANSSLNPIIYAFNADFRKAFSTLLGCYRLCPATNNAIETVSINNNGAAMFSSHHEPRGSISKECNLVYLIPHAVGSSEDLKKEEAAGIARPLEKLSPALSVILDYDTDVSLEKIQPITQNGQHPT
Sequence of Mu-type opioid receptor (P35372 whole entry): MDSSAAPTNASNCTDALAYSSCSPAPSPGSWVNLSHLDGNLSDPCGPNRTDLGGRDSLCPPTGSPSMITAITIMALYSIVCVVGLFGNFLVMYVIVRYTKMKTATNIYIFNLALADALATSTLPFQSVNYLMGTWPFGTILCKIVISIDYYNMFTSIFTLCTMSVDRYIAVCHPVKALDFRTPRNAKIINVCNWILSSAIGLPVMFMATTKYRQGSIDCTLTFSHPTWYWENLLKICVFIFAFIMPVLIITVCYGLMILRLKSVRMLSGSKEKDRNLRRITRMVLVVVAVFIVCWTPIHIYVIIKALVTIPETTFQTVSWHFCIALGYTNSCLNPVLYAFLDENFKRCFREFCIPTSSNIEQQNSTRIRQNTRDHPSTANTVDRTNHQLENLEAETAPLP

Compound | AC50 (Mu-type opioid receptor) | AC50 [1] | AC50 [2] | AC50 (D(1A) dopamine receptor) | AC50 [3] | AC50 [4] | AC50 [5] | AC50 (Thromboxane A2 receptor) | AC50 (Estrogen receptor) | AC50 (Prothrombin) | AC50 [6] | AC50 (Histamine H3 receptor) | AC50 [7] | AC50 [8]
CCCC(=O)O[C@H]1[C@H](C)O[C@@H](O[C@H]2[C@H](N(C)C)[C@@H](O)[C@H](O[C@H]3[C@@H](CC=O)C[C@@H](C)[C@@H](O)/C=C/C=C/C[C@@H](C)OC(=O)C[C@@H](O)[C@@H]3OC)O[C@@H]2C)C[C@@]1(C)OC(=O)CC [ROKITAMYCIN] | > 30 µM | > 30 µM | > 30 µM | > 30 µM | > 30 µM | > 30 µM | > 30 µM | > 30 µM | > 30 µM | > 30 µM | > 30 µM | > 30 µM | > 30 µM | > 30 µM
CCCCCCCCCCCCCCCCCC(=O)NCCCC[C@H](NC(=O)CC[C@@H](NC(=O)[C@H](C)NC(=O)[C@@H](C)O[C@H]1[C@H](O)[C@@H](CO)OC(O)[C@@H]1NC(C)=O)C(N)=O)C(=O)O (some centres not stated) [ROMURTIDE] | > 30 µM | > 30 µM | > 30 µM | > 30 µM | > 30 µM | > 30 µM | > 30 µM | 15.9 µM | 22.2 µM | > 30 µM | 26 µM | > 30 µM | > 30 µM | > 30 µM
O=C(Oc1ccccc1C(=O)O)c1ccccc1O [SALSALATE] | > 30 µM | > 30 µM | > 30 µM | > 30 µM | > 30 µM | > 30 µM | > 30 µM | > 30 µM | > 30 µM | > 30 µM | > 30 µM | > 30 µM | > 30 µM | > 30 µM
CCOC(=O)[C@H](CCc1ccccc1)N[C@H]1CS[C@H](c2cccs2)CN(CC(=O)O)C1=O [TEMOCAPRIL] | > 30 µM | > 30 µM | > 30 µM | > 30 µM | > 30 µM | > 30 µM | > 30 µM | > 30 µM | > 30 µM | > 30 µM | > 30 µM | > 30 µM | > 30 µM | > 30 µM
COc1cc([C@@H]2c3cc4c(cc3[C@@H](O[C@@H]3O[C@@H]5CO[C@@H](c6cccs6)O[C@H]5[C@H](O)[C@H]3O)[C@H]3COC(=O)[C@H]23)OCO4)cc(OC)c1O [TENIPOSIDE] | > 30 µM | > 30 µM | > 30 µM | > 30 µM | > 30 µM | > 30 µM | > 30 µM | > 30 µM | > 30 µM | > 30 µM | > 30 µM | > 30 µM | > 30 µM | > 30 µM
c1ccc2[nH]c(-c3cscn3)nc2c1 [THIABENDAZOLE] | > 30 µM | > 30 µM | > 30 µM | > 30 µM | > 30 µM | > 30 µM | > 30 µM | > 30 µM | > 30 µM | > 30 µM | > 30 µM | > 30 µM | > 30 µM | > 30 µM
CCSc1ccc2c(c1)N(CCCN1CCN(C)CC1)c1ccccc1S2 [THIETHYLPERAZINE] | 2.69 µM | 3.87 µM | > 30 µM | 0.0079 µM | 1.65 µM | > 30 µM | 0.211 µM | > 30 µM | > 30 µM | > 30 µM | 1.2 µM | 13 µM | 26.5 µM | 24.7 µM
C[C@@H]1C[C@H]2[C@@H]3CCC4=CC(=O)C=C[C@]4(C)C3=CC[C@]2(C)[C@H]1C(=O)CN1CCN(c2cc(N3CCCC3)nc(N3CCCC3)n2)CC1 [TIRILAZAD] | > 30 µM | > 30 µM | > 30 µM | 7.07 µM | > 30 µM | > 30 µM | 17.3 µM | > 30 µM | > 30 µM | > 30 µM | 1.9 µM | > 30 µM | 3.05 µM | > 30 µM
